The record followed here is patent US20040063659A1, “Novel 2'-halomethylidene,2'-ethenylidene and 2'-ethynyl cytidine, uridine and guanosine derivatives” (Merrell Pharmaceuticals Inc., priority 1988, published 2004).

For the test, the system named is HeLa cells. In words: Inhibitory effects of compounds on HeLa cell proliferation in vitro. The class given is cell-based. As to conditions: Homo sapiens; exponentially growing HeLa cells, incubated with test compound for 96 hours; concentration at 50% inhibition of cell growth. How it is done: The inhibitory effect of various compounds of formula (1) on HeLa cell proliferation in vitro was determined according to the method described by Sunkara et al. [J. Natl Cancer Instit. 70, 505-509 (1983)]. Exponentially growing HeLa cells were incubated in the presence or absence of various concentrations of test compounds for 96 hours. IC50 values were calculated which represent the test compound concentration at 50% inhibition of cell growth.

In brackets after ≈: the same amount, converted by molar mass.

As usually defined, the IC50 is the concentration at which inhibition is half-maximal. `Nc1ccn([C@@H]2O[C@H](CO)[C@@H](O)/C2=C\F)c(=O)n1` [Compound A, (E)-2′-deoxy-2′-fluoromethylidene cytidine]: the IC50 is 0.01 to 0.015 µg/mL (≈ 0.0389 to 0.0583 µM). Turning to `Nc1ccn([C@@H]2O[C@H](CO)[C@@H](O)/C2=C/F)c(=O)n1` [Compound B, (Z)-2′-deoxy-2′-fluoromethylidene cytidine], the IC50 fell in the range of 1 to 5 µg/mL (≈ 3.89 to 19.4 µM).
